This is an account of results in PubChem BioAssay AID192 (DTP/NCI, 2004).

Molecules are shown by their SMILES. Where “and” joins values, the source holds several entries; their conditions need not be identical. Identical values can stand only once. Toxic doses and inconclusive results are not listed. Numbered stars: 1 amine (or outer) side, 2 acyl side, 3 side chain; on linkers, the order of the positions; unused ones are H or OH. Bridge positions count the residues as written; N and C are the ends. Square brackets hold non-standard residues; d marks the D form. Peptide text beside a SMILES is read from it. I, II: the chains in the order shown. Actinocin(9to1) = Cc1c2oc3c(C)ccc(C(=O)[*:1])c3nc-2c(C(=O)[*:2])c(N)c1=O; X2 = O=C(C1CC(Cl)CN1[*:1])[*:2]; NMeV = CN[CH](C(=O)O)C(C)C; Sar = CNCC(=O)O

The subject of this experiment is BDF1 mice, B16 melanoma ip, median survival T/C. In words: NCI In Vivo Anticancer Drug Screen. Data for tumor model B16 Melanoma (intraperitoneal) in B6D2F1 (BDF1) mice. The settings on record: endpoint: median survival time, higher = longer survival. A digest of the protocol: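 Read-out: survival or tumor size, given as treated/control ratio. Controls received vehicle only; animals bore transplantable tumors.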

The mark [1] stands for this setting: dose: 12.5 mg/kg/injection, schedule: Q01DX009 (ip), vehicle: saline with Tween-80.
Where [2] appears, read: dose: 25.0 mg/kg/injection, schedule: Q01DX009 (ip), vehicle: saline with Tween-80.
Setting [3] is: dose: 6.25 mg/kg/injection, schedule: Q01DX009 (ip), vehicle: saline with Tween-80.
The mark [4] stands for this setting: dose: 25.0 mg/kg/injection, schedule: Q01DX009 (ip), vehicle: Klucel (hydroxypropylcellulose) (HPC).
[5] abbreviates: dose: 50.0 mg/kg/injection, schedule: Q01DX009 (ip), vehicle: Klucel (hydroxypropylcellulose) (HPC).
Setting [6] is: dose: 100.0 mg/kg/injection, schedule: Q01DX009 (ip), vehicle: Klucel (hydroxypropylcellulose) (HPC).
Where [7] appears, read: dose: 200.0 mg/kg/injection, schedule: Q01DX009 (ip), vehicle: Klucel (hydroxypropylcellulose) (HPC).
[8] abbreviates: dose: 1.25 mg/kg/injection, schedule: Q01DX009 (ip), vehicle: Klucel (hydroxypropylcellulose) (HPC).

Consider `CC(CC1c2ccccc2CCc2ccccc21)CN(C)C` (configuration not stated), for which the T/C is 98 % of control (dose: 1.25 mg/kg/injection, schedule: Q01DX009 (ip), vehicle: saline); 106 % of control (dose: 2.5 mg/kg/injection, schedule: Q01DX009 (ip), vehicle: saline); 94 % of control (dose: 5.0 mg/kg/injection, schedule: Q01DX009 (ip), vehicle: saline); 113 % of control (dose: 6.25 mg/kg/injection, schedule: Q01DX009 (ip), vehicle: saline); 106 % of control (dose: 10.0 mg/kg/injection, schedule: Q01DX009 (ip), vehicle: saline); 119 % of control (dose: 12.5 mg/kg/injection, schedule: Q01DX009 (ip), vehicle: saline). The T/C by setting is: (dose: 20.0 mg/kg/injection, schedule: Q01DX009 (ip), vehicle: saline) 106 % of control; (dose: 40.0 mg/kg/injection, schedule: Q01DX009 (ip), vehicle: saline) 101 % of control; (dose: 80.0 mg/kg/injection, schedule: Q01DX009 (ip), vehicle: saline) 92 % of control.
Take `O=NN(CCCl)C(=O)NC1c2cc(Cl)ccc2-c2c(Cl)cc(Cl)cc21` (configuration not stated): the T/C by setting is: under setting [1], 169 % of control; under setting [2], 195 % of control; (dose: 50.0 mg/kg/injection, schedule: Q01DX009 (ip), vehicle: saline with Tween-80) 181 % of control and 186 % of control; (dose: 100.0 mg/kg/injection, schedule: Q01DX009 (ip), vehicle: saline with Tween-80) 104 % of control and 231 % of control; (dose: 200.0 mg/kg/injection, schedule: Q01DX009 (ip), vehicle: saline with Tween-80) 175 % of control.
Regarding `NC(=S)N/N=C/c1cccc(CC(O)(C(F)(F)F)C(F)(F)F)n1`, the T/C was 95 % of control under setting [3]; 116 % of control (dose: 6.25 mg/kg/injection, schedule: Q04DX003 (ip), vehicle: saline with Tween-80); 90 % of control under setting [1]; 116 % of control (dose: 12.5 mg/kg/injection, schedule: Q04DX003 (ip), vehicle: saline with Tween-80); 88 % of control under setting [2]; 100 % of control (dose: 25.0 mg/kg/injection, schedule: Q04DX003 (ip), vehicle: saline with Tween-80).
With `COc1ccc2c(oc(=O)c3c(Cl)nc(C)c(C)c32)c1OC`, the T/C was 105 % of control under setting [4], 98 % of control under setting [5], 97 % of control under setting [6] and 94 % of control under setting [7].
Take `C[n+]1c(/C=C\C=C\N2CCCCC2)sc2ccccc21`: the T/C (dose: 0.06 mg/kg/injection, schedule: Q01DX009 (ip), vehicle: Klucel (hydroxypropylcellulose) (HPC)) is 101 % of control; the T/C (dose: 0.12 mg/kg/injection, schedule: Q01DX009 (ip), vehicle: Klucel (hydroxypropylcellulose) (HPC)) is 105 % of control; the T/C (dose: 0.25 mg/kg/injection, schedule: Q01DX009 (ip), vehicle: Klucel (hydroxypropylcellulose) (HPC)) is 101 % of control; the T/C (dose: 0.5 mg/kg/injection, schedule: Q01DX009 (ip), vehicle: Klucel (hydroxypropylcellulose) (HPC)) is 95 % of control; the T/C (dose: 0.63 mg/kg/injection, schedule: Q01DX009 (ip), vehicle: Klucel (hydroxypropylcellulose) (HPC)) was 103 % of control; the T/C (dose: 1.0 mg/kg/injection, schedule: Q01DX009 (ip), vehicle: Klucel (hydroxypropylcellulose) (HPC)) was 101 % of control. Further, the T/C reads like this: under setting [8], 101 % of control; (dose: 2.0 mg/kg/injection, schedule: Q01DX009 (ip), vehicle: Klucel (hydroxypropylcellulose) (HPC)) 105 % of control; (dose: 2.5 mg/kg/injection, schedule: Q01DX009 (ip), vehicle: Klucel (hydroxypropylcellulose) (HPC)) 109 % of control.
For the molecule `CN(C)c1ccc2c(c1)C(Br)c1ccccc1-2` (configuration not stated), the T/C (dose: 6.25 mg/kg/injection, schedule: Q04DX003 (ip), vehicle: Klucel (hydroxypropylcellulose) (HPC)) was 102 % of control; the T/C (dose: 12.5 mg/kg/injection, schedule: Q04DX003 (ip), vehicle: Klucel (hydroxypropylcellulose) (HPC)) is 105 % of control; the T/C (dose: 25.0 mg/kg/injection, schedule: Q04DX003 (ip), vehicle: Klucel (hydroxypropylcellulose) (HPC)) is 97 % of control.
Turning to `Cc1c2oc3c(C)ccc(C(=O)NC4C(=O)NC(C(C)C)C(=O)N5CC(Cl)CC5C(=O)N(C)CC(=O)N(C)C(C(C)C)C(=O)OC4C)c3nc-2c(C(=O)NC2C(=O)NC(C(C)C)C(=O)N3CC(Cl)CC3C(=O)N(C)CC(=O)N(C)C(C(C)C)C(=O)OC2C)c(N)c1=O` (configuration not stated) (I: TV[X2][Sar][NMeV] / II: TV[X2][Sar][NMeV]; ester I:1-I:C, II:1-II:C; linker I:N-II:N via Actinocin(9to1); configuration not given here), the T/C reads like this: (dose: 1080.0 micrograms/kg/injection, schedule: Q04DX003 (ip), vehicle: saline + alcohol) 159 % of control; (dose: 1800.0 micrograms/kg/injection, schedule: Q04DX003 (ip), vehicle: saline + alcohol) 160 % of control.
Regarding `O=C1C=CC(=O)N1c1ccc(Cl)cc1`, the T/C under setting [8] is 97 % of control.
As for `c1ccc(CSSCc2ccccc2)cc1`, the T/C runs as follows: under setting [6], 113 % of control; under setting [7], 114 % of control; (dose: 400.0 mg/kg/injection, schedule: Q01DX009 (ip), vehicle: Klucel (hydroxypropylcellulose) (HPC)) 108 % of control.
Turning to `CC1(C)N=C(N)N=C(N)N1c1ccc(CCCCc2cccc(S(=O)(=O)F)c2)c(Cl)c1`, the T/C (dose: 8.0 mg/kg/injection, schedule: Q01DX009 (ip), vehicle: saline) was 108 % of control; the T/C (dose: 12.0 mg/kg/injection, schedule: Q01DX009 (ip), vehicle: saline) was 116 % of control; the T/C (dose: 18.0 mg/kg/injection, schedule: Q01DX009 (ip), vehicle: saline) is 118 % of control; the T/C (dose: 27.0 mg/kg/injection, schedule: Q01DX009 (ip), vehicle: saline) was 124 % of control.
For the molecule `CCOC(=O)NC(C)(C)CN(CCO)C(=O)OCC`, the T/C is 102 % of control (dose: 100.0 mg/kg/injection, schedule: Q04DX003 (ip), vehicle: Klucel (hydroxypropylcellulose) (HPC)) and 100 % of control (dose: 400.0 mg/kg/injection, schedule: Q04DX003 (ip), vehicle: Klucel (hydroxypropylcellulose) (HPC)).
Turning to `Cc1ccc(NC(=O)COc2ccc(Cl)cc2Cl)c([N+](=O)[O-])c1`, the T/C was 100 % of control (dose: 25.0 mg/kg/injection, schedule: Q01DX009 (ip), vehicle: carboxymethylcellulose (CMC)); 100 % of control (dose: 50.0 mg/kg/injection, schedule: Q01DX009 (ip), vehicle: carboxymethylcellulose (CMC)); 88 % of control under setting [6]; 100 % of control (dose: 100.0 mg/kg/injection, schedule: Q01DX009 (ip), vehicle: carboxymethylcellulose (CMC)).
In the case of `Cc1oc2c(c(=O)c1C)C1CCC(C2)N1C` (configuration not stated), the T/C reads like this: under setting [4], 103 % of control; under setting [5], 103 % of control; under setting [6], 97 % of control.
For `Clc1ccc2c(c1)/C(=C\c1ccnc3ccccc13)c1cc(Cl)cc(Cl)c1-2`, the T/C under setting [3] was 93 % of control.
Regarding `CN(C)c1ncnc2c1ncn2C1OC(CO)C(N)C1O` (configuration not stated), the T/C is, setting by setting: (dose: 25.0 mg/kg/injection, schedule: Q01DX009 (ip), vehicle: saline) 111 % of control; (dose: 50.0 mg/kg/injection, schedule: Q01DX009 (ip), vehicle: saline) 118 % of control.
On to `CC(C)C1NC(=O)C(N)C(C)OC(=O)C(C(C)C)N(C)C(=O)CN(C)C(=O)C2CCCN2C1=O` (configuration not stated) (tested in a mixture with another compound) (H-TVP[Sar][NMeV]; ester 1-C; configuration not given here), for which the T/C is, setting by setting: (dose: 0.22 mg/kg/injection, schedule: Q01DX009 (ip), vehicle: water) 156 % of control; (dose: 25.0 micrograms/kg/injection, schedule: Q01DX009 (ip), vehicle: saline + alcohol) 107 % of control; (dose: 50.0 micrograms/kg/injection, schedule: Q01DX009 (ip), vehicle: saline + alcohol) 122 % of control; (dose: 75.0 micrograms/kg/injection, schedule: Q04DX003 (ip), vehicle: saline + alcohol) 107 % of control and 114 % of control; (dose: 150.0 micrograms/kg/injection, schedule: Q04DX003 (ip), vehicle: saline + alcohol) 116 % of control; (dose: 200.0 micrograms/kg/injection, schedule: Q01DX009 (ip), vehicle: saline + alcohol) 150 % of control. The T/C is, setting by setting: (dose: 300.0 micrograms/kg/injection, schedule: Q04DX003 (ip), vehicle: saline + alcohol) 100 % of control; (dose: 400.0 micrograms/kg/injection, schedule: Q01DX009 (ip), vehicle: saline + alcohol) 124 % of control; (dose: 1200.0 micrograms/kg/injection, schedule: Q04DX003 (ip), vehicle: saline + alcohol) 93 % of control and 107 % of control.
